Data on 15 molecules can be found in patent publication EP4782453A1 (Beyang Therapeutics Co., Ltd., priority 2023, dated 2025).

Assay [1] concerns the target T1, Menin-MLL (Homo sapiens, UniProt O00255).
T1 construct: His-Menin (M1-L615 end); purchased BIORTUS BP9210
T1 sequence (O00255 1-615 isoform O00255-1): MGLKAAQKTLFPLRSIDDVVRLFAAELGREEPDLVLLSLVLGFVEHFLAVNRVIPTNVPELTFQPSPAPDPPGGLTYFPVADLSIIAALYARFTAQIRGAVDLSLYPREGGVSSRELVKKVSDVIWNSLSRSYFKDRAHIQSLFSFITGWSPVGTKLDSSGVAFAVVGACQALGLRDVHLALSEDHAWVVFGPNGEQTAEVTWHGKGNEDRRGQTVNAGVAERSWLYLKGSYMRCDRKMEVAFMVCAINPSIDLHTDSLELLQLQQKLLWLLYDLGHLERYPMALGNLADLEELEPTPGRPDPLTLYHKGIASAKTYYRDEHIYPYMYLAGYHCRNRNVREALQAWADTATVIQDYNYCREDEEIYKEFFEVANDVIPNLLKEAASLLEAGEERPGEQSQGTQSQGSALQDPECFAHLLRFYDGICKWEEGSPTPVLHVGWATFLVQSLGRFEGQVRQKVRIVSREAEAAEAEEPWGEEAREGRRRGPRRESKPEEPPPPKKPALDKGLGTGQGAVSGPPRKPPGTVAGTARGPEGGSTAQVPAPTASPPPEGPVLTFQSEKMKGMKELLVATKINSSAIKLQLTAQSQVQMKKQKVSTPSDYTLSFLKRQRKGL
The assay can be described thus: Inhibitory activity against Menin-MLL binding (fluorescence polarization). As to conditions: 150 nM His-Menin, 15 nM FITC-MLL, 25°C for 60 min. A digest of the protocol: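 His-Menin (M1-L615, 150 nM) preincubated with compound 15 min at 25 °C in HEPES pH 7.5, 50 mM NaCl, 1 mM DTT, 0.01% BSA, then 15 nM FITC-MLL4-43 peptide added for 60 min at 25 °C. Fluorescence polarization read; IC50 from 4-parameter logistic fit, duplicates.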

Assay [2] concerns MV-4-11 (carrying MLL-AF4). The assay can be described thus: Inhibition of proliferation of human tumor cells (Alamar Blue, 7 days), MV-4-11. Type of assay: cell-based. Conditions: Homo sapiens, MV4-11, 168 h, MV-4-11 cells (carrying MLL-AF4), method calls the value GI50. A digest of the protocol:
(§1)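 MV-4-11: IMDM + 10% FBS; KG-1a: IMDM + 20% FBS; MOLM-13: RPMI-1640 + 20% FBS. 3- or 4-fold serial dilutions, duplicates, 7 d at 37°C. Readout Alamar Blue; GI50 vs Day 0 and Day 7 DMSO controls.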

Assay [3] has as its system MOLM-13 (carrying MLL-AF9). Description: Inhibition of proliferation of human tumor cells (Alamar Blue, 7 days), MOLM-13. Type of assay: cell-based. Conditions: Homo sapiens, MOLM-13 cells (carrying MLL-AF9), method calls the value GI50. A digest of the protocol:
as §1
On the technique in general: Alamar Blue is a resazurin reagent that responds to reducing activity.

In assay [4] the test system is KG-1a (wild-type MLL). Description: Inhibition of proliferation of human tumor cells (Alamar Blue, 7 days), KG-1a control cell line. It is filed as cell-based. As to conditions: 168 h, KG-1a cells (wild-type MLL, control cell line), method calls the value GI50. From the text: Experimental Example 2: Evaluation of Inhibitory Activity of Compounds Against Proliferation of Human Tumor Cells
• Human acute lymphoblastic leukemia cells MV-4-11, purchased from American Type Culture Collection, Catalog Number: CRL-9591; • Human acute myeloid leukemia cells MOLM-13, purchased from COBIOER BIOSCIENCES CO., LTD, Catalog Number: CBP60678; • Human acute myeloid leukemia cells KG-1a, purchased from American Type Culture Collection, Catalog Number: CCL-246.1; • Inverted Microscope, purchased from Olympus Tokyo; • Countess™ Automated Cell Counter, purchased from Invitrogen, Model: C10281; and • Multilabel Reader, purchased from Bio-Tek, Model: Synergy HT.
MV-4-11 cells were cultured in an IMDM medium containing 10% fetal bovine serum, KG-a cells were cultured in an IMDM medium containing 20% fetal bovine serum, or MOLM-13 cells were cultured in an RPMI-1640 medium containing 20% fetal bovine serum, each supplemented with 100 U·mL^-1 penicillin and 100 µg·mL^-1 streptomycin. These cells were cultured at 37°C with 5% CO2. The suspensions of individual cell lines were prepared in their respective media and seeded into 96-well plates at a density of 4,000 cells/well for MV-4-11 and MOLM-13 cells, or 3,000 cells/well for KG-1a cells. On the day of the experiment, a compound stock solution was diluted in a 3-fold or 4-fold gradient using DMSO. Each gradient-diluted stock solution was then further diluted 250-fold with a complete medium to prepare a series of working solutions at different concentrations. Subsequently, 100 µL of working solution (containing a 2-fold concentration series of the test compound) was added to each well, with duplicate wells set up for each concentration.
Seven days after compound addition (on Day 7), an Alamar Blue assay reagent (MCE, HY-111391 / CS-0040317) was added to measure the fluorescence intensity in each well. Wells containing the cells in the growth medium supplemented with 0.1% DMSO (Day 7) served as high-read control wells. The readouts from the wells containing the cells in the growth medium supplemented with 0.1% DMSO on the day of compound addition (Day 0) served as low-reading control well. GraphPad Prism software was used to calculate the concentration required to inhibit 50% of cell proliferation (GI50), which serves as a cell proliferation inhibition activity index.

The mark [5] stands for this setting: fluorescence polarization, read-out: Menin-MLL IC50.
Where [6] appears, read: Menin-MLL IC50, fluorescence polarization.

pIC50: −log10 of the molar value. Where two headings read alike, the source gives them in different places.

As to `CCN(C(=O)c1cc(F)ccc1-c1cc(C2CCN(CCc3ccc(-c4cc(OC)c(OC)nn4)cc3)CC2)cn2cncc12)C(C)C` [Compound 42, 2-[6-(1-{2-[4-(5,6-dimethoxypyridazin-3-yl)phenyl]ethyl}piperidin-4-yl)imidazo[1,5-a]pyridin-8-yl]-N-ethyl-5-fluoro-N-(isopropyl)benzamide], the pIC50 (in general, −log10 of the IC50, conventionally taken in molar units) is 8.46 in assay [1] (setting [5]), 8.48 in assay [2], 7.59 in assay [3] (168 h) and 5.48 in assay [4].
`CCN(C(=O)c1cc(F)ccc1-c1cc([C@H]2CC[C@@H](NCc3ccc(-c4cc(OC)c(OC)nn4)cc3)CC2)cn2cncc12)C(C)C` [Example 18-1, N-ethyl-5-fluoro-N-(isopropyl)-2-{6-[(1s,4s)-4-({[4-(5,6-dimethoxypyridazin-3-yl)phenyl]methyl}amino)cyclohexyl]imidazo[1,5-a]pyridin-8-yl}benzamide]: the pIC50 in assay [1] (setting [6]) was 8.22; in assay [2], 7.74; in assay [3] (MOLM-13, 168 h), 7.21; in assay [4], 5.01.
On to `CCN(C(=O)c1cc(F)ccc1-c1cc([C@H]2CC[C@H](NCc3ccc(-c4cc(OC)c(OC)nn4)cc3)CC2)cn2cncc12)C(C)C` [Example 18-2, N-ethyl-5-fluoro-N-(isopropyl)-2-{6-[(1r,4r)-4-({[4-(5,6-dimethoxypyridazin-3-yl)phenyl]methyl}amino)cyclohexyl]imidazo[1,5-a]pyridin-8-yl}benzamide], for which the pIC50 in assay [1] (setting [6]) was 8.26; in assay [2] it was 8.03; in assay [3] (MOLM-13, 168 h) it was 7.37; in assay [4], 5.19.
As to `CCN(C(=O)c1cc(F)ccc1-c1cc([C@@H]2CCN(C[C@H]3CC[C@H](NS(=O)(=O)CC)CC3)C2)cn2cncc12)C(C)C` [Example 22-2], the values for the pIC50 in assay [1] (setting [6]), in assay [2] and in assay [4] were 7.85, 7.66 and 4.70, respectively.
For the molecule `CCN(C(=O)c1cc(F)ccc1-c1cc([C@@H]2CCN(C[C@H]3CC[C@H](NS(=O)(=O)CC)CC3)C2)cc2cncn12)C(C)C` [Example 25-1, N-ethyl-5-fluoro-N-isopropyl-2-{7-[(3S)-1-{[(1r,4r)-4-ethanesulfonamidocyclohexyl]methyl}pyrrolidin-3-yl]imidazo[1,5-a]pyridin-5-yl}benzamide], the pIC50 is 8.24 in assay [1] (setting [6]), 8.33 in assay [2] and 4.90 in assay [4].
For `Cc1ncc2c(-c3ccc(F)cc3C(=O)N(C(C)C)C3CC3)cc(N3CCN(C(=O)C4NC5CCC4CC5)CC3)cn12` [Example 72, N-cyclopropyl-5-fluoro-2-(3-methyl-6-{4-[(1R,3S,4S)-2-azabicyclo[2.2.2]octan-3-carbonyl]piperazin-1-yl}imidazo[1,5-a]pyridin-8-yl)-N-(isopropyl)benzamide], the values for the pIC50 in assay [1] (setting [6]), in assay [2] and in assay [4] were 7.27, 7.24 and 4.70, respectively.
As to `CCN(C(=O)c1cc(F)ccc1-c1cc(C2(F)CCN(C[C@H]3CC[C@H](NS(=O)(=O)CC)CC3)C2)cn2c(C)ncc12)C(C)C` (some centres unmarked) [Example 73, N-ethyl-5-fluoro-2-[6-(3-fluoro-1-{[(1r,4r)-4-ethanesulfonamidocyclohexyl]methyl}pyrrolidin-3-yl)-3-methylimidazo[1,5-a]pyridin-8-yl]-N-(isopropyl) benzamide], the results for the negative-log IC50 (pIC50) in assay [1] (setting [6]), in assay [2] and in assay [4] were 7.55, 7.21 and 4.70, respectively.
Regarding `CCN(C(=O)c1cc(F)ccc1-c1cc(C2CN(C(=O)C3NC4CCC3CC4)C2)cn2c(C)ncc12)C(C)C` [Example 90, N-ethyl-5-fluoro-2-(3-methyl-6-{1-[(1R,3S,4S)-2-azabicyclo[2.2.2]octan-3-carbonyl]azacyclobutan-3-yl}imidazo[1,5-a]pyridin-8-yl)-N-(isopropyl)benzamide], the pIC50 in assay [1] (setting [6]) was 7.96; in assay [2], 7.70; in assay [3] (MOLM-13, 168 h), 7.00; in assay [4], 4.70.
The matching figures for `CCS(=O)(=O)N[C@H]1CC[C@H](CN2CC(c3cc(-c4ccc(F)cc4C(=O)N4CCOC[C@H]4C)c4c(F)nc(C)n4c3)C2)CC1` [Example 145, N-[(1r,4r)-4-{[3-(1-fluoro-8-{4-fluoro-2-[(3R)-3-methylmorpholin-4-carbonyl]phenyl}-3-methylimidazo[1,5-a]pyridin-6-yl)azacyclobutan-1-yl]methyl}cyclohexyl]ethan-1-sulfonamide]: 7.74, 7.89, 7.53 and 4.72.
With `COCCN(C)CCCC(C(C)C)N1CC(c2cc(-c3ccc(F)cc3C(=O)N(CC(F)F)C(C)C)c3cnc(C)n3c2)C1` (centres unmarked) [Example 149], the pIC50 is 8.07 in assay [1] (setting [5]), 8.68 in assay [2], 8.08 in assay [3] (168 h) and 5.28 in assay [4].
The matching figures for `COCCN(C)CCCC(C(C)C)N1CC(c2cc(-c3ccc(F)cc3C(=O)N3CCOC[C@H]3C)c3cnn(C)c3c2)C1` (some centres unmarked) [Example 162]: 7.62, 7.57, 7.17 and 5.15.
Regarding `CCS(=O)(=O)N[C@H]1CC[C@H](CN2CC(c3cc(-c4ccc(F)cc4C(=O)N4[C@H](C)COC[C@H]4C)c4cnn(C)c4c3)C2)CC1` [Example 168], the pIC50 in assay [1] (setting [6]) is 7.49; in assay [2], 7.49; in assay [3] (MOLM-13, 168 h), 6.98; in assay [4], 4.70.
Take `COCC1CN(CCC[C@H](C(C)C)N2CC(c3cc(-c4ccc(F)cc4C(=O)N4CCOC[C@H]4C)c4cnn(C)c4c3)C2)C1` [Example 183-2]: the pIC50 in assay [1] (setting [5]) is 7.93; in assay [2], 8.10; in assay [3] (168 h), 7.41; in assay [4] it was 4.96.
For `COCC1CN(CCC[C@H](C(C)C)N2CC(c3cc(-c4ccc(F)cc4C(=O)N4CCOC[C@H]4C)c4c(F)nc(C)n4c3)C2)C1` [Example 203], in that order: 8.48, 8.68, 8.25 and 4.70.
The matching figures for `Cc1cncc2c(-c3ccc(F)cc3C(=O)N(CC(F)F)C(C)C)cc(CC3CN(CC4CCOCC4)C3)n12` [Example 206, N-(2,2-difluoroethyl)-5-fluoro-2-[4-methyl-6-({1-[(oxacyclohexan-4-yl)methyl]azacyclobutan-3-yl}methyl)pyrrolo[1,2-a]pyrazin-8-yl]-N-(isopropyl)benzamide]: 8.46, 8.46, 7.82 and 4.70.
